Read-outs that look alike come from different tables or passages of the source. *1 amine or outer side, *2 acyl side, *3 side chain or, on linkers, in order; H or OH if unused. Where a SMILES comes first, the peptide text is derived from it. Bridges are numbered along the chain shown (N, C = ends). [ ]: non-standard residue; d: D form. 2Nal = N[C@@H](Cc1ccc2ccccc2c1)C(=O)O; AEF = NCCOc1ccc(C[C@H](N)C(=O)O)cc1; X1 = O=C(Cc1ccc(CN[*:1])cc1)[*:2]; 3Pal = N[C@@H](Cc1cccnc1)C(=O)O; αMeL = CC(C)C[C@](C)(N)C(=O)O; CH2COCH2 = O=C(C[*:1])C[*:2]; 3Amb = NCc1cccc(C(=O)O)c1; Dab = NCC[C@H](N)C(=O)O
Key:
[1] = biological target: T1, human IL-23R (Homo sapiens, UniProt Q5VWK5); experiment: biochemical
T1 sequence (Q5VWK5 22-629): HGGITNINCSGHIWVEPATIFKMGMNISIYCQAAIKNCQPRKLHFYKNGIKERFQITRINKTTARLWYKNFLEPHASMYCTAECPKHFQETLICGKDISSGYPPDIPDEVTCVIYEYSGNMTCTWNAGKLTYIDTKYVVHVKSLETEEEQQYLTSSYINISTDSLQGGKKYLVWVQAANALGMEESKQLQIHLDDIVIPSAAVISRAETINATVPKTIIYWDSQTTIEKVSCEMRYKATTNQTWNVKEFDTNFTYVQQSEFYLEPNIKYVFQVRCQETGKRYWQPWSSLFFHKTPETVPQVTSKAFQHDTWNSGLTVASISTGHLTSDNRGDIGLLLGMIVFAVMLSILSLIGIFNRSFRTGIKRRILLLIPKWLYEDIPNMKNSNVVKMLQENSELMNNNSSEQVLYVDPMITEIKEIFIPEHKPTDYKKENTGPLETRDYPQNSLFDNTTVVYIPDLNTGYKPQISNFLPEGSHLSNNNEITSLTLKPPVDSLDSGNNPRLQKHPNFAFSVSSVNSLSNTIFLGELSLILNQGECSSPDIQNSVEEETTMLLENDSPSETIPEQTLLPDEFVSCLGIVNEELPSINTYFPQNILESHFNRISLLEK
Outline: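 Membranes from HEK293 cells stably expressing Nluc-tagged human IL-23R were incubated 2 h at room temperature with test compound and a fluorophore-labelled tracer. After substrate addition, loss of BRET (TAMRA over luciferase emission) reported tracer displacement. A 4PL fit gave IC50 values.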

[2] = biological target: IL-23 mediated signalling (Homo sapiens, UniProt Q5VWK5); experiment: Functional inhibition of IL-23 mediated STAT3 signalling (phospho-STAT3 MSD) in DB cells; format: cell-based; conditions: for Emax: maximal inhibitory response, read-out: hIL-23 (pSTAT3) antagonist % inhibition
Outline: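 DB cells preincubated with inhibitor 15 min at 37 °C, then stimulated 90 min with EC80 human IL-23; lysate phospho-STAT3 measured by MSD electrochemiluminescence. Signal normalized to IL-23-alone and buffer controls; IC50 and maximal % inhibition from 4-parameter logistic fit.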

[3] = Peptide stability in simulated gastric fluid (SGF); format: in vitro ADME; conditions: for remaining at 1 h, 10 µM / remaining at 4 h, 10 µM: pig
Outline: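 Peptide incubated at 37 °C with gentle shaking in SGF (NaCl, pH 1.2). Samples centrifuged, diluted and analysed by LC-HRMS; percent remaining at each timepoint from absolute peak areas relative to time zero, with 4 h as the reference point.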

[4] = Peptide stability in simulated intestinal fluid (SIF); format: in vitro ADME; conditions: 37 °C, porcine pancreatin; for remaining at 1 h, 10 µM / remaining at 4 h, 10 µM: pig; for remaining at 1 h, 10 µM: pH 6.8, 1 h
Outline: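 Peptides were incubated at 37 °C with gentle shaking in pH 6.8 potassium phosphate SIF containing porcine pancreatin (10 g/L). Supernatants were analysed by LC-HRMS. Percent remaining at each timepoint, including 4 h, was calculated relative to time zero from absolute peak areas.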

[5] = Table 3-2, DB cells, hIL-23 at EC80
[6] = simulated gastric fluid (SGF) with porcine pepsin (3.2 g/L), pH 1.2, 10 µM, 37 °C, porcine pepsin, pH 1.2, 1 h, read-out: SGF (% remaining 1 h)
[7] = SAR tables, % peptide remaining, pH 6.8, 4 h, read-out: SIF (% after 4 h)
[8] = simulated gastric fluid (SGF) with porcine pepsin (3.2 g/L), pH 1.2, 10 µM, 37 °C, porcine pepsin, pH 1.2, 4 h, read-out: SGF (% remaining 4 h)
[9] = Table 3-2, DB cells, hIL-23 at EC80, read-out: hIL-23 (pSTAT3) antagonist IC50
[10] = pH 6.8, 4 h, read-out: SIF (% remaining 4 h)

SMILES	% displacement (hIL-23R NIuc) [1] [%]	IC50 [1] [nM]	Emax [2, 5] [%]	SGF (% after 4 h) ([3]; SAR tables, % peptide remaining, 10 µM, 37 °C, porcine pepsin, pH 1.2, 4 h) [%]	remaining at 1 h, 10 µM [3, 6] [%]	remaining at 4 h, 10 µM ([3]; simulated gastric fluid (SGF) with porcine pepsin (3.2 g/L), pH 1.2, SAR tables, % peptide remaining, 10 µM, 37 °C, porcine pepsin, pH 1.2, 4 h, read-out: SGF (% after 4 h)) [%]	SIF (% remaining 4 h) ([4]; 10 µM, pH 6.8, 4 h) [%]	SIF (% after 4 h) ([4]; SAR tables, % peptide remaining, 10 µM, pH 6.8, 4 h) [%]	remaining at 1 h, 10 µM [4] [%]	remaining at 4 h, 10 µM [4, 7] [%]	Emax ([1]; read-out: % displacement (hIL-23R NIuc)) [%]	IC50 ([2]; SAR tables 2-1 to 2-7, DB cells, hIL-23 at EC80, read-out: IC50 (pSTAT3)) [nM]	remaining at 4 h, 10 µM [3, 8] [%]	Ki [1] [nM]	IC50 [2, 9] [nM]	remaining at 4 h, 10 µM [4, 10] [%]	IC50 [2] [nM]	remaining at 1 h, 10 µM ([3]; simulated gastric fluid, pH 1.2, SGF (% remaining 1 h)) [%]	remaining at 4 h, 10 µM ([3]; simulated gastric fluid, pH 1.2, SGF (% remaining 4 h)) [%]
CC[C@H](C)[C@@H]1NC(=O)[C@@H]2CCCCNC(=O)CC[C@@H](C(=O)N[C@@H](CCN)C(=O)N[C@@H](Cc3cccnc3)C(=O)NC)NC(=O)[C@](C)(CC(C)C)NC(=O)[C@H](Cc3ccc4ccccc4c3)NC(=O)[C@H](Cc3ccc(OCCN)cc3)NC(=O)[C@H](CCC(=O)N2)NC(=O)[C@H](CCC(N)=O)NC(=O)[C@H](Cc2c[nH]c3ccccc23)NC(=O)[C@H](C(C)C)NC1=O [Compound 60, K(1c)(6c)^†IVWQE(6c)[Y(2-aminoethoxy)][2-Nal][2-Me-Leu]E(1c)[Dab][3-(3-Pyridyl)-Ala]-[NHMe]]	95	0.049	101	109	120	109	71	71	76	71	–	–	–	–	–	–	–	–	–
CNC(=O)[C@H](Cc1cccnc1)NC(=O)[C@H](CCN)NC(=O)[C@@H]1CCC(=O)NCCCC[C@H]2CC(=O)NCC(=O)N[C@@H](Cc3c[nH]c4ccccc34)C(=O)N[C@@H](CCC(N)=O)C(=O)N[C@@H](CCC(=O)N2)C(=O)N[C@@H](Cc2ccc(OCCN)cc2)C(=O)N[C@@H](Cc2ccc3ccccc3c2)C(=O)N[C@@](C)(CC(C)C)C(=O)N1 [Compound 99, [beta-hLys](1c)(6c)^†GWQE(6c)[Y(2-aminoethoxy)][2-Nal][2-Me-Leu]E(1c)[Dab][3-(3-Pyridyl)-Ala]-[NHMe]]	–	0.024	100	–	104	–	42	–	74	42	101	0.014	101	–	–	–	–	–	–
CC(C)C[C@@H]1NC(=O)[C@H](Cc2c[nH]c3ccccc23)NC(=O)[C@H](Cc2c[nH]c3ccccc23)NC(=O)[C@@H]2CSCC(=O)CSC[C@H](NC(=O)[C@H](CO)NC(=O)[C@@H](NC(=O)[C@@H](N)CC(=O)O)CCC(=O)NCCCC[C@@H](C(=O)N[C@@H](CCCNC(=N)N)C(N)=O)NC1=O)C(=O)N[C@@H](Cc1c[nH]c3ccccc13)C(=O)N[C@@H](CCC(N)=O)C(=O)N2 [Ref 4, H-DE(1c)SC(2a)WQC(2a)WWLK(1c)R-[NH2], reference compound] (HELM PEPTIDE1{D.E.S.C.W.Q.C.W.W.L.K.R.[am]}|CHEM1{[O=C(C[*:1])C[*:2]]}$PEPTIDE1,PEPTIDE1,2:R3-11:R3|PEPTIDE1,CHEM1,4:R3-1:R1|PEPTIDE1,CHEM1,7:R3-1:R2$$$V2.0)	100	180	87	–	1	–	–	–	0	–	–	–	0	143	850	0	–	–	–
CC(=O)N[C@@H](CC(=O)O)C(=O)N[C@H]1CCC(=O)NCCCC[C@@H](C(=O)N[C@@H](CCCNC(=N)N)C(N)=O)NC(=O)[C@H](CC(C)C)NC(=O)[C@H](Cc2ccc3ccccc3c2)NC(=O)[C@H](Cc2c[nH]c3ccccc23)NC(=O)[C@@H]2CSCC(=O)CSC[C@H](NC(=O)[C@H](CO)NC1=O)C(=O)N[C@@H](Cc1c[nH]c3ccccc13)C(=O)N[C@@H](CCC(N)=O)C(=O)N2 [Ref 17, [Ac]-DE(1c)SC(2a)WQC(2a)W[2-Nal]LK(1c)R-[NH2], reference compound]	–	87	–	–	0	–	–	–	0	–	–	–	0	70.7	370	0	–	–	–
CC(C)C[C@@H]1NC(=O)[C@H](Cc2ccc3ccccc3c2)NC(=O)[C@H](Cc2c[nH]c3ccccc23)NC(=O)[C@@H]2CSCC(=O)CSC[C@H](NC(=O)[C@H](CO)NC(=O)c3cccc(c3)CNC(=O)CC[C@@H](C(=O)N[C@@H](CCCNC(=N)N)C(N)=O)NC1=O)C(=O)N[C@@H](Cc1c[nH]c3ccccc13)C(=O)N[C@@H](CCC(N)=O)C(=O)N2 [Ref 37, [(3-Aminomethyl)benzoyl](1c)*SC(2a)WQC(2a)W[2-Nal]LE(1c)R-[NH2], reference compound] ([3Amb]SCWQCW[2Nal]LER-NH2; linker 3-6 via CH2COCH2; lactam N-10)	103	12	89	–	2	–	–	–	0	–	–	–	1	9.87	45	0	–	–	–
CC(C)C[C@]1(C)NC(=O)[C@H](Cc2ccc3ccccc3c2)NC(=O)[C@H](Cc2ccc(OCCN)cc2)NC(=O)[C@@H]2CSCC(=O)CSC[C@H](NC(=O)[C@H](CO)NC(=O)c3cccc(c3)CNC(=O)CC[C@@H](C(=O)N[C@H](CCCNC(=N)N)C(N)=O)NC1=O)C(=O)N[C@@H](Cc1c[nH]c3ccccc13)C(=O)N[C@@H](CCC(N)=O)C(=O)N2 [Ref 41, [(3-Aminomethyl)benzoyl](1c)*SC(2a)WQC(2a)[Y(2-aminoethoxy)][2-Nal][2-Me-Leu]E(1c)[{d}R]-[NH2], reference compound] ([3Amb]SCWQC[AEF][2Nal][αMeL]E[dR]-NH2; linker 3-6 via CH2COCH2; lactam N-10)	110	2.8	99	–	93	–	–	–	83	–	–	–	87	2.31	29	79	–	–	–
CC(C)C[C@]1(C)NC(=O)[C@H](Cc2ccc3ccccc3c2)NC(=O)[C@H](Cc2ccc(OCCN)cc2)NC(=O)[C@@H]2CSCC(=O)CSC[C@H](NC(=O)[C@H](CO)NC(=O)Cc3ccc(cc3)CNC(=O)CC[C@@H](C(=O)N[C@@H](CCN)C(=O)N[C@@H](Cc3cccnc3)C(N)=O)NC1=O)C(=O)N[C@@H](Cc1c[nH]c3ccccc13)C(=O)N[C@@H](CCC(N)=O)C(=O)N2 [Ref 120, [4-Aminomethyl-phenylacetyl](1c)*SC(2a)WQC(2a)[Y(2-aminoethoxy)][2-Nal][2-Me-Leu]E(1c)[Dab][3-(3-Pyridyl)-Ala]-[NH2], reference compound] ([X1]SCWQC[AEF][2Nal][αMeL]E[Dab][3Pal]-NH2; linker 3-6 via CH2COCH2; lactam N-10)	94	0.011	101	–	–	–	–	–	82	–	–	–	–	0.00938	–	39	0.054	84	81
